Assay results reported in patent US9212201B2, “Antifungal and antiparasitic polyene macrolides” (priority 2010, dated 2015).
≈ marks a conversion by molar mass, not a printed value. Where two headings read alike, the source gives them in different places.

Columns and labels:
Water solubility = format: physicochemical; settings: in words
C. albicans = assay: In vitro antifungal susceptibility CLSI M27-A2 (MIC, MFC); format: cell-based; settings: C. albicans (10)
C. glabrata = assay: as above; format: cell-based; settings: C. glabrata (10)
C. parapsilosis = assay: as above; format: cell-based; settings: C. parapsilosis (10)
C. kefyr = assay: as above; format: cell-based; settings: C. kefyr (10)
C. guilliermondii = assay: as above; format: cell-based; settings: C. guilliermondii (2)
C. dubliniensis = assay: In vitro antifungal susceptibility CLSI M27-A2 (MIC); format: cell-based; settings: C. dubliniensis (5)
Protocol: (§1) In addition, MFC ([…]) was done for each species. The geometric mean (GM) was calculated for each isolate using all three results. All testing was performed in triplicate to verify the reproducibility of the data.
Eighty-three Candida strains were evaluated. This included 12 different Candida species, which are the species that are most commonly involved in the majority of candidal infections in humans. The species include ten isolates of C. albicans, C. glabrata, C. parapsilosis, C. tropicalis, C. krusei, C. lusitaniae, and C. kefyr, along with five isolates of C. dubliniensis, and two isolates each of C. guilliermondii and C. rugosa. In addition, there was also one isolate each of C. sake, C. lipolytica, C. sphaerica and C. norvegica.

[1] = tested on: Other Candida species (C. lipolytica, C. sake, C. sphaerica, C. norvegica); assay: In vitro antifungal susceptibility CLSI M27-A2 (MIC, MFC); format: cell-based; settings: Other Candida spp. (4)
A. flavus = assay: In vitro antifungal susceptibility CLSI M38-A (MIC); format: cell-based; settings: 5 isolates
Protocol: as §1
(§2) A total of 31 isolates of Aspergillus were evaluated. This included six different species of Aspergillus which included six strains of A. fumigatus, and 5 strains of A. flavus, A. terreus, A. niger and A. glaucus.

A. fumigatus = assay: as above; format: cell-based; settings: A. fumigates, 6 isolates
Protocol: as §1, §2

A. glaucus = assay: as above; format: cell-based; settings: 5 isolates
Protocol: as §1, §2

A. niger = assay: as above; format: cell-based; settings: 5 isolates
Protocol: as §1, §2

A. terreus = assay: as above; format: cell-based; settings: 5 isolates
Protocol: as §1, §2

A. versicolor = assay: as above; format: cell-based; settings: 5 isolates
Protocol: as §1, §2

Acremonium spp. = assay: as above; format: cell-based; settings: 5 isolates
Protocol: as §1
(§3) Several of the more common molds were also tested and evaluated including five strains of Alternaria, Cladosporium, Scopulariopsis, Acremonium, and Paecilomyces. Also evaluated were some of the more uncommon fungi such as Exophilia jeanselmei (3), Emmonsia parvum (Chrysporium parvum) (2) and Epioccum spp. (2). Conventional ATCC strains of different Candida and Aspergillus species were used as controls.

Alternaria spp. = assay: as above; format: cell-based; settings: 5 isolates
Protocol: as §1, §3

Cladosporium spp. = assay: as above; format: cell-based; settings: 5 isolates
Protocol: as §1, §3

[2] = tested on: Emmonsia parvum (Chrysporium parvum); assay: as above; format: cell-based; settings: 2 isolates
Protocol: as §1, §3

Epioccum spp. = assay: as above; format: cell-based; settings: 2 isolates
Protocol: as §1, §3

Paecilomyces spp. = assay: as above; format: cell-based; settings: 5 isolates
Protocol: as §1, §3

Scopulariopsis spp. = assay: as above; format: cell-based; settings: 5 isolates
Protocol: as §1, §3

Coccidioides sp = format: cell-based
Naegleria fowleri = assay: Primary amoebic meningoencephalitis in mice; format: in vivo, Balb/c mice; settings: 9 mg/kg/day for a total of 10 days
[3] = background statement; cited from earlier work
[4] = tested on: Candida albicans (ATCC 44858); settings: 3 mg/kg PO; 15-day observation
[5] = tested on: L. donovani intracellular amastigotes
[6] = human, in vivo; cited from earlier work

**Q.** With `C[C@@H]1[C@H](O)[C@@H](C)/C=C/C=C/C=C/C=C/C=C/C=C/C=C/[C@H](O[C@@H]2O[C@H](C)[C@@H](O)[C@H](N)[C@@H]2O)C[C@@H]2O[C@](O)(C[C@@H](O)C[C@@H](O)[C@H](O)CC[C@@H](O)C[C@@H](O)CC(=O)O[C@H]1C)C[C@H](O)[C@H]2C(=O)O` [Amphotericin B, amphotericin B] as the compound, how does the Water solubility (Water solubility) read?
**A.** insoluble

**Q.** What about the “GM (geometric mean MIC)” value (C. albicans) of the same compound?
**A.** 0.612 µg/mL

**Q.** What about the MFC (C. albicans) of the same compound?
**A.** 1 µg/mL (≈ 1.08 µM)

**Q.** And the MIC50 (C. albicans)?
**A.** 0.5 µg/mL (≈ 0.541 µM)

**Q.** What about the MIC90 (C. albicans) of the same compound?
**A.** 1 µg/mL (≈ 1.08 µM)

**Q.** What about the “MIC Range” value (C. albicans) of the same compound?
**A.** 0.12 to 1 µg/mL

**Q.** And the “GM (geometric mean MIC)” value (C. glabrata)?
**A.** 0.9 µg/mL

**Q.** What about the MFC (C. glabrata) of the same compound?
**A.** 1 µg/mL (≈ 1.08 µM)

**Q.** What about the MIC50 (C. glabrata) of the same compound?
**A.** 1 µg/mL (≈ 1.08 µM)

**Q.** What about the MIC90 (C. glabrata) of the same compound?
**A.** 1 µg/mL (≈ 1.08 µM)

**Q.** And the “MIC Range” value (C. glabrata)?
**A.** 0.5 to 1.0 µg/mL

**Q.** What about the MIC50 (C. glabrata; listed as amphotericin B) of the same compound?
**A.** 1.0 µg/mL (≈ 1.08 µM)

**Q.** What about the “GM (geometric mean MIC)” value (C. parapsilosis) of the same compound?
**A.** 0.7 µg/mL

**Q.** What about the MFC (C. parapsilosis) of the same compound?
**A.** 2 µg/mL (≈ 2.16 µM)

**Q.** And the MIC50 (C. parapsilosis)?
**A.** 0.5 µg/mL (≈ 0.541 µM)

**Q.** What about the MIC90 (C. parapsilosis) of the same compound?
**A.** 1 µg/mL (≈ 1.08 µM)

**Q.** What about the “MIC Range” value (C. parapsilosis) of the same compound?
**A.** 0.5 to 1.0 µg/mL

**Q.** And the “GM (geometric mean MIC)” value (C. kefyr)?
**A.** 1.25 µg/mL

**Q.** And the MFC (C. kefyr)?
**A.** 1 µg/mL (≈ 1.08 µM)

**Q.** What about the MIC50 (C. kefyr) of the same compound?
**A.** 1 µg/mL (≈ 1.08 µM)

**Q.** What about the MIC90 (C. kefyr) of the same compound?
**A.** 2 µg/mL (≈ 2.16 µM)

**Q.** And the “MIC Range” value (C. kefyr)?
**A.** 0.12 to 2.0 µg/mL

**Q.** And the “GM (geometric mean MIC)” value (C. guilliermondii)?
**A.** 0.5 µg/mL

**Q.** And the MFC (C. guilliermondii)?
**A.** 1 µg/mL (≈ 1.08 µM)

**Q.** And the “MIC Range” value (C. guilliermondii)?
**A.** 0.5 µg/mL (≈ 0.541 µM)

**Q.** What about the “GM (geometric mean MIC)” value (C. dubliniensis) of the same compound?
**A.** 0.4 µg/mL

**Q.** What about the MIC50 (C. dubliniensis) of the same compound?
**A.** 0.5 µg/mL (≈ 0.541 µM)

**Q.** What about the MIC90 (C. dubliniensis) of the same compound?
**A.** 1 µg/mL (≈ 1.08 µM)

**Q.** And the “MIC Range” value (C. dubliniensis)?
**A.** 0.125 to 1 µg/mL

**Q.** What about the “GM (geometric mean MIC)” value [1] of the same compound?
**A.** 0.95 µg/mL

**Q.** And the MFC [1]?
**A.** 2 µg/mL (≈ 2.16 µM)

**Q.** And the MIC50 [1]?
**A.** 1 µg/mL (≈ 1.08 µM)

**Q.** What about the “MIC Range” value [1] of the same compound?
**A.** 0.5 to 1.0 µg/mL

**Q.** And the GM (A. flavus)?
**A.** 4.8 µg/mL

**Q.** And the MIC50 (A. flavus)?
**A.** 2 µg/mL (≈ 2.16 µM)

**Q.** And the “MIC Range” value (A. flavus)?
**A.** 2 to 16 µg/mL

**Q.** And the GM (A. fumigatus)?
**A.** 1.58 µg/mL

**Q.** What about the MIC50 (A. fumigatus) of the same compound?
**A.** 2 µg/mL (≈ 2.16 µM)

**Q.** And the “MIC Range” value (A. fumigatus)?
**A.** 0.5 to 2 µg/mL

**Q.** And the GM (A. glaucus)?
**A.** 0.7 µg/mL

**Q.** What about the MIC50 (A. glaucus) of the same compound?
**A.** 0.5 µg/mL (≈ 0.541 µM)

**Q.** What about the “MIC Range” value (A. glaucus) of the same compound?
**A.** 0.25 to 1 µg/mL

**Q.** And the GM (A. niger)?
**A.** 0.8 µg/mL

**Q.** What about the MIC50 (A. niger) of the same compound?
**A.** 1 µg/mL (≈ 1.08 µM)

**Q.** And the “MIC Range” value (A. niger)?
**A.** 0.5 to 1 µg/mL

**Q.** And the GM (A. terreus)?
**A.** 2.0 µg/mL

**Q.** And the MIC50 (A. terreus)?
**A.** 2 µg/mL (≈ 2.16 µM)

**Q.** What about the “MIC Range” value (A. terreus) of the same compound?
**A.** 2 to 4 µg/mL

**Q.** What about the GM (A. versicolor) of the same compound?
**A.** 0.9 µg/mL

**Q.** What about the MIC50 (A. versicolor) of the same compound?
**A.** 1 µg/mL (≈ 1.08 µM)

**Q.** And the “MIC Range” value (A. versicolor)?
**A.** 0.25 to 2 µg/mL

**Q.** What about the GM (Acremonium spp.) of the same compound?
**A.** 8 µg/mL

**Q.** What about the MIC50 (Acremonium spp.) of the same compound?
**A.** 8 µg/mL (≈ 8.66 µM)

**Q.** What about the “MIC Range” value (Acremonium spp.) of the same compound?
**A.** 8 µg/mL (≈ 8.66 µM)

**Q.** What about the GM (Alternaria spp.) of the same compound?
**A.** 0.25 µg/mL

**Q.** What about the MIC50 (Alternaria spp.) of the same compound?
**A.** 0.25 µg/mL (≈ 0.271 µM)

**Q.** And the “MIC Range” value (Alternaria spp.)?
**A.** 0.25 to 0.5 µg/mL

**Q.** What about the GM (Cladosporium spp.) of the same compound?
**A.** 0.7 µg/mL

**Q.** And the MIC50 (Cladosporium spp.)?
**A.** 0.25 µg/mL (≈ 0.271 µM)

**Q.** What about the “MIC Range” value (Cladosporium spp.) of the same compound?
**A.** 0.25 to 0.5 µg/mL

**Q.** What about the GM [2] of the same compound?
**A.** 0.25 µg/mL

**Q.** And the MIC50 [2]?
**A.** 0.25 µg/mL (≈ 0.271 µM)

**Q.** And the “MIC Range” value [2]?
**A.** 0.25 µg/mL (≈ 0.271 µM)

**Q.** And the GM (Epioccum spp.)?
**A.** 1 µg/mL

**Q.** And the MIC50 (Epioccum spp.)?
**A.** 1 µg/mL (≈ 1.08 µM)

**Q.** What about the “MIC Range” value (Epioccum spp.) of the same compound?
**A.** 1 µg/mL (≈ 1.08 µM)

**Q.** And the GM (Paecilomyces spp.)?
**A.** 1.4 µg/mL

**Q.** And the MIC50 (Paecilomyces spp.)?
**A.** 1 µg/mL (≈ 1.08 µM)

**Q.** What about the “MIC Range” value (Paecilomyces spp.) of the same compound?
**A.** 0.5 to 2 µg/mL

**Q.** And the GM (Scopulariopsis spp.)?
**A.** 0.95 µg/mL

**Q.** What about the MIC50 (Scopulariopsis spp.) of the same compound?
**A.** 1 µg/mL (≈ 1.08 µM)

**Q.** What about the “MIC Range” value (Scopulariopsis spp.) of the same compound?
**A.** 0.5 to 1 µg/mL

**Q.** What about the “MFC higher than corifungin” value (Coccidioides sp; 2 C isolates) of the same compound?
**A.** ≥ 4 fold

**Q.** And the MFC (Coccidioides sp; 3 of the C isolates)?
**A.** ≥ 8 µg/mL

**Q.** What about the MIC (Coccidioides sp; 3 of the C isolates) of the same compound?
**A.** 4 µg/mL (≈ 4.33 µM)

**Q.** What about the MIC (Coccidioides sp; Coccidioides sp isolate 1) of the same compound?
**A.** 2 µg/mL (≈ 2.16 µM)

**Q.** What about the MFC (Coccidioides sp; Coccidioides sp isolate 1, >96% kill of the inoculum) of the same compound?
**A.** 8 µg/mL (≈ 8.66 µM)

**Q.** What about the MIC (Coccidioides sp; Coccidioides sp isolate 2) of the same compound?
**A.** 4 µg/mL (≈ 4.33 µM)

**Q.** And the MFC (Coccidioides sp; Coccidioides sp isolate 2, >96% kill of the inoculum)?
**A.** 8 µg/mL (≈ 8.66 µM)

**Q.** What about the MIC (Coccidioides sp; Coccidioides sp isolate 3) of the same compound?
**A.** 1 µg/mL (≈ 1.08 µM)

**Q.** What about the MFC (Coccidioides sp; Coccidioides sp isolate 3, >96% kill of the inoculum) of the same compound?
**A.** > 8 µg/mL

**Q.** And the MIC (Coccidioides sp; Coccidioides sp isolate 4)?
**A.** 4/4 mcg/mL

**Q.** What about the MFC (Coccidioides sp; Coccidioides sp isolate 4, >96% kill of the inoculum) of the same compound?
**A.** 4/4 mcg/mL

**Q.** And the MIC (Coccidioides sp; Coccidioides sp isolate 5)?
**A.** 4/4 mcg/mL

**Q.** And the MFC (Coccidioides sp; Coccidioides sp isolate 5, >96% kill of the inoculum)?
**A.** 4/4 mcg/mL

**Q.** And the survival (Naegleria fowleri)?
**A.** no improvement in survival over the control

**Q.** And the Water solubility [3]?
**A.** insoluble in water

**Q.** And the “increase in survival rate” value [4]?
**A.** 80%

**Q.** What about the IC50 [5] of the same compound?
**A.** 50 nM

**Q.** And the patients with nephrotoxicity [6]?
**A.** ≤ 80%
